In PubChem BioAssay (NCI) one finds GI50 and TGI data, which are given here for nine compounds.

What all share (experiment): DTP human tumour cell line panel, 48 h
For test [1], the system named is UACC-257 melanoma.
Test [2] deals with K-562 leukemia.
For test [3], the system named is CCRF-CEM leukemia.
The subject of test [4] is CAKI-1 renal.
The test system of test [5] is T-47D breast.
The subject of test [6] is RPMI-8226 leukemia.
In test [7] the test system is NCI-H522 lung.
Test [8] relates to OVCAR-4 ovarian.

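How tested: cells in 96-well plates exposed to compound for 48 hours at five concentrations. GI50 = concentration required for 50% inhibition of growth. The concentration for full growth arrest is given as TGI.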

`CN(C)c1ncnc2c1nnn2C1OC(CO)C(O)C1O` (stereo unspecified): the GI50 is 0.515 µM in test [1]; 0.0973 µM in test [2]; 0.0662 µM in test [3]; 0.066 µM in test [4]; 0.141 µM in test [5]; 0.16 µM in test [6]. Besides, the GI50 in test [7] was 0.272 µM; in test [8], 0.0558 µM. For the same compound, the concentration for total growth inhibition (TGI) in test [1] was more than 100 µM; in test [2], more than 100 µM; in test [3] it was more than 100 µM; in test [4] it was 8.77 µM; in test [5], 2.81 µM; in test [6], 1.1 µM. The figures for the total growth inhibition concentration (TGI) in test [7] and in test [8] were 1.41 µM and more than 100 µM, respectively.

Consider `CN(C)c1ccc(/C=C(\C#N)c2nc3ccccc3n2C)cc1`, for which the GI50 in test [1] was 20.2 µM; in test [2] it was 0.249 µM; in test [3], 3.36 µM; in test [4], 5.16 µM; in test [5], 3.08 µM; in test [6], 2.85 µM. Moreover, the GI50 in test [7] is 1.7 µM; in test [8], 4.22 µM. Further, the concentration for total growth inhibition (TGI) is more than 100 µM in test [1]; 10.8 µM in test [2]; 16 µM in test [3]; more than 90.6 µM in test [4]; 27.2 µM in test [5]; 14.7 µM in test [6]. The figures for the TGI in test [7] and in test [8] were 16 µM and more than 21.9 µM, respectively.

Regarding `CC(=O)OCC(=O)O[C@@H]1C[C@]2(C(C)C)O[C@@]1(C)[C@@H]1CC[C@@H](C)[C@H]1[C@@H]2OC(=O)/C=C/c1ccccc1`, the GI50 in test [1] was 23.6 µM; in test [2] it was 17.2 µM; in test [3], 21.3 µM; in test [4] it was 0.0244 µM; in test [5], 8.81 µM; in test [6] it was 18.8 µM. The GI50 was 17.9 µM in test [7] and 22.7 µM in test [8]. Besides, the total growth inhibition concentration (TGI) was 87.4 µM in test [1]; more than 100 µM in test [2]; more than 100 µM in test [3]; 0.125 µM in test [4]; more than 97.2 µM in test [5]; more than 100 µM in test [6]. Moreover, the values for the TGI in test [7] and in test [8] were 47.8 µM and more than 100 µM, respectively.

Turning to `COC(=O)[C@]12CC[C@@H](C)[C@H](C)[C@@H]1C1=CC[C@@H]3[C@@]4(C)C(C=O)=C[C@@](C)(COC(=O)c5ccco5)[C@@H]4C(=O)C[C@@]3(C)[C@]1(C)CC2`, the GI50 in test [1] was 0.148 µM; in test [2], 3.95 µM; in test [3] it was 2.42 µM; in test [4], 3.77 µM; in test [5], 3.71 µM; in test [6], 2.06 µM. The GI50 was 7.63 µM in test [7] and 3.57 µM in test [8]. For the same compound, the TGI in test [1] is 0.666 µM; in test [2], more than 100 µM; in test [3] it was 12.6 µM; in test [4], more than 100 µM; in test [5], 50.6 µM; in test [6] it was 6.68 µM. In addition, the TGI in test [7] and in test [8] was more than 100 µM each time.

With `Cn1c(O)c(C(/C=C/c2ccccc2)=NCCN=C(/C=C/c2ccccc2)c2c(O)n(C)c(=O)n(C)c2=O)c(=O)n(C)c1=O`, the GI50 is 23.5 µM in test [1]; 14.6 µM in test [2]; 12.4 µM in test [3]; 19.9 µM in test [4]; 16.1 µM in test [5]; 9.3 µM in test [6]. The GI50 in test [7] was 16.8 µM; in test [8] it was 13.9 µM. Besides, the TGI is more than 50 µM in test [1]; more than 50 µM in test [2]; more than 50 µM in test [3]; more than 50 µM in test [4]; more than 50 µM in test [5]; 30.4 µM in test [6]. For the same compound, the TGI in test [7] and in test [8] was more than 50 µM in each case.

As for `Cc1ccc(C)c(NC(=O)NCc2ccc(Cl)cc2)c1`, the concentration for total growth inhibition (TGI) in test [1] is more than 100 µM; in test [2], 98.6 µM; in test [3], more than 27.6 µM; in test [4] it was more than 100 µM; in test [5] it was more than 100 µM; in test [6] it was more than 100 µM. Further, the results for the TGI in test [7] and in test [8] were 97.3 µM and more than 100 µM, respectively.

With `Cn1cc(C2=C(c3cccnc3)C(=O)NC2=O)c2ccccc21`, the GI50 in test [1] was more than 25 µM; in test [2], more than 25 µM; in test [3], 10.5 µM; in test [4], more than 17.4 µM; in test [5] it was 14.6 µM; in test [6], more than 25 µM. Also, the GI50 in test [7] is more than 25 µM; in test [8], more than 22.2 µM. For the same compound, the TGI in test [1], in test [2], in test [3], in test [4], in test [5] and in test [6] was more than 25 µM each time. Also, the total growth inhibition concentration (TGI) in test [7] and in test [8] was more than 25 µM throughout.

As for `Cc1cnc(/C=N\NC(N)=S)c2cccc(N)c12`, the GI50 was 4.81 µM in test [1]; 2.82 µM in test [2]; 1.82 µM in test [3]; 2.51 µM in test [4]; 2.49 µM in test [5]; 2.1 µM in test [6]. The GI50 was 3.87 µM in test [7] and 3.4 µM in test [8]. In addition, the TGI in test [1] is more than 38.8 µM; in test [2], more than 100 µM; in test [3] it was more than 24 µM; in test [4], more than 57 µM; in test [5], more than 100 µM; in test [6] it was more than 100 µM. The total growth inhibition concentration (TGI) in test [7] and in test [8] was more than 100 µM each time.

As for `C[C@@H]1CC[C@@H]2[C@@H]1[C@H](OC(=O)/C=C/c1ccccc1)[C@]1(C3CCCCC3)C[C@@H](NC(=O)CO)[C@@]2(C)O1`, the GI50 in test [1] is 25.2 µM; in test [2], 21.1 µM; in test [3], 23.2 µM; in test [4], 6.01 µM; in test [5] it was 14.3 µM; in test [6], 20.8 µM. Moreover, the GI50 was 17.1 µM in test [7] and 16 µM in test [8]. Further, the concentration for total growth inhibition (TGI) came out at 42.1 µM in test [1]; 45.1 µM in test [2]; 45.2 µM in test [3]; 19.7 µM in test [4]; 30.8 µM in test [5]; 44.4 µM in test [6]. Moreover, the TGI in test [7] turned out to be 33.6 µM; in test [8] it was 35.4 µM.
